Results: patent US20170002313A1, “COMPOSITIONS AND METHODS OF OBTAINING AND USING ENDODERM AND HEPATOCYTE CELLS” (Genentech Inc., priority 2012, published 2017)

Experiments:
phosphorylated AKT = test: Phospho imaging assay (immunofluorescence); assay type: cell-based, human; details: 60 min; treated versus untreated cells, fluorescence intensity
Description: (§1) The effect of each compound on the PI3K/AKT/MTOR pathway was evaluated in two ways: via a kinase profile (FIG. 23) and via phospho imaging assays (i.e., immunofluorescence assays using antibodies specific for the phosphorylated form of mTOR or AKT). In vitro kinase profiling provided percent inhibition for numerous targets within the PI3K cell signaling pathway, and cell-based imaging assays were performed to directly visualize the effect of each compound on phosphorylated Akt and phosphorylated mTOR in the cell system used for differentiation.
(§2) In column 2 of Table 6, the PI3K alpha_MTOR score reflects the ability of a compound to inhibit the phosphorylation of PI3K alpha and mTOR, where + indicates minimal inhibition, and +++ indicates maximal inhibition. In column 3 of Table 6, the score indicates the ratio of phosphorylated mTOR (as measured by fluorescence intensity) in cells treated with a compound and the phosphorylated mTOR (as measured by fluorescence intensity) in cells that were not treated with the compound. In column 4 of Table 6, the score indicates the ratio of phosphorylated AKT (as measured by fluorescence intensity) in cells treated with a compound and the phosphorylated AKT (as measured by fluorescence intensity) in cells that were not treated with the compound. A reported effect of AKT inhibitors is an increase in phosphorylated AKT.

phosphorylated mTOR = test: Phospho imaging assay (immunofluorescence); assay type: cell-based, human; details: 60 min; treated versus untreated cells, fluorescence intensity
Description: as §1, §2

mTOR = mTOR (Homo sapiens, UniProt P42345); test: In vitro kinase profile, PI3K alpha_MTOR score; assay type: biochemical
Description: as §1, §2

[1] = test system: human embryonic stem cells (hESC); test: Endoderm differentiation of hESC with small-molecule inhibitors, flow cytometry of endoderm markers; assay type: cell-based; details: Activin A + 750 nM inhibitor, no Wnt3a, 3-day treatment
Description: A variety of cell-type specific markers were used to monitor the differentiation of stem cells into endoderm cells in the flow cytometry, fluorescence imaging, and immunoassay experiments described below. To detect endoderm conversion, hESC-derived cell samples were stained for the expression of SOX17, FoxA2, and CXCR4 proteins. SOX17, FoxA2, and CXCR4 are proteins that are expressed by endoderm cells but not by stem cells. To detect stem cells, cell samples were stained for the expression of OCT4, a protein expressed by stem cells but not by endoderm cells.
Undifferentiated human embryonic stem cells (hES) were maintained at a density of 40,000 cells/cm^2 on qualified matrigel (BD, #354277) in TesR™2 medium ([…]™ Technologies #05860). Cultures were manually passaged twice a week. To prepare for endoderm differentiation, hESC cells were passaged into TesR™2 medium overnight. The following day, the TesR™2 medium was replaced with basal medium (DMEM/F12+Glutamax (Invitrogen, #10565) supplemented with B27 (Invitrogen, #17504-044)). No human embryos were destroyed in the process of obtaining stem cells for these methods. Furthermore, the plurality of stem cells is not obtained by the prior destruction of human embryos.
Unless otherwise noted, basal medium was supplemented with […] human Activin A (Peprotech, #120-14). When indicated, basal medium was also supplemented with an effective amount of, e.g., a growth factor such as […] human Wnt3a (R&D, #5036-WN-010), an isoform-specific P13K inhibitor or an mTOR inhibitor. […]
To prepare the cells for flow cytometry, hESC-derived cells grown under endoderm differentiation conditions were dissociated using Accutase (Innovative Cell technologies, #AT-104). Briefly, the cells were washed once in PBS, incubated with Accutase for 10 minutes at room temperature, pelleted, and washed in cold PBS. The Accutase-dissociated hESC-derived cell samples were stained with anti-CXC4 antibody, anti-SOX17 antibody, or anti-FoxA2 antibody. Additional cell samples were stained with isotype control antibodies (e.g., IgG1 or IgG2).
The cells that were to be stained with anti-CXCR4 antibody were washed once with cold DPBS and then directly stained with mouse anti-human CD184 (CXCR4)-IgG2-PE (BD, #555974) for one hour at 4° C. The cells that were to be stained with anti-SOX17 antibody or anti-FoxA2 antibody were first fixed for 25 minutes at 4° C. in fixation buffer (BD, #554655) and permeabilized for 30 minutes on ice in Perm Buffer III (BD, #554656). Anti-SOX17 staining was performed using a mouse anti-SOX17 IgG1-PE antibody (BD, #561591) at room temperature for 30 minutes. Anti-FoxA2 staining was performed using a mouse anti-human FoxA2 IgG1 (BD, #561589) under the same conditions. A control sample of cells were fixed as described above and stained with either an anti-IgG1-PE antibody (BD, #554680) at room temperature for 30 minutes or an anti-IgG2-PE antibody (BD, #55574) for one hour at 4° C.
The antibody-stained hESC-derived cells were then analyzed via flow cytometry using a BD LSRFortessa™ cell analyzer. […] Approximately 1×10^6 cells were analyzed per sample.

PI3K alpha = PI3K alpha (Homo sapiens, UniProt P42336); test: In vitro kinase profile, PI3K alpha_MTOR score; assay type: biochemical
Chain of PI3K alpha (P42336 whole entry, species assumed): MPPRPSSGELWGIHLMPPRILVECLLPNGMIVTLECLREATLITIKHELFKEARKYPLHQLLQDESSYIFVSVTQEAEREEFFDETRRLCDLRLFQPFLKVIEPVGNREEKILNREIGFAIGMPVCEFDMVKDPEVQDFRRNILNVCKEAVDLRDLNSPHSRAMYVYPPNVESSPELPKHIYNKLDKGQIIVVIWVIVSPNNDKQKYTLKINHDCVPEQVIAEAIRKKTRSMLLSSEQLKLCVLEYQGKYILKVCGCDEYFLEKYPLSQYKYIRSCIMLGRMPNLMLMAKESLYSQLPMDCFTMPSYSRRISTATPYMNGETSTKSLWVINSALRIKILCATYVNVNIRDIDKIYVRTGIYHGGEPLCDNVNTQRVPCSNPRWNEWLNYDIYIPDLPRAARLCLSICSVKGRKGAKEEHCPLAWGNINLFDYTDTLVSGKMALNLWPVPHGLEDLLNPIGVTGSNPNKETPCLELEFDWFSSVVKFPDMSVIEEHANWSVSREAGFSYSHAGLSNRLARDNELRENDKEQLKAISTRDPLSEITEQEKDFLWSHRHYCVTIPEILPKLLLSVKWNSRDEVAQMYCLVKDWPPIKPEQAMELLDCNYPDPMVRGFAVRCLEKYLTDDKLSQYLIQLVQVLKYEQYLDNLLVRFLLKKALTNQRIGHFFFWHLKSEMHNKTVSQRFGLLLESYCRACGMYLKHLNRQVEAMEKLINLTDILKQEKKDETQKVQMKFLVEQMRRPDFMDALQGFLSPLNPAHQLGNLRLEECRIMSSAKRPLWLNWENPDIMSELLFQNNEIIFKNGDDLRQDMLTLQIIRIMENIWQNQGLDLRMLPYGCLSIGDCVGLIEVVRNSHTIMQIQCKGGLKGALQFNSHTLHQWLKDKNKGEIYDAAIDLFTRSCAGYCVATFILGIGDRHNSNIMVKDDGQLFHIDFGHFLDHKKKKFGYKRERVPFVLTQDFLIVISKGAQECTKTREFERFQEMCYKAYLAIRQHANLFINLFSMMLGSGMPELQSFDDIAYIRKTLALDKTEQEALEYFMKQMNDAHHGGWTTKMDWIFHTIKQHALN
Chain of PI3K alpha (P27986 whole entry partner, species assumed): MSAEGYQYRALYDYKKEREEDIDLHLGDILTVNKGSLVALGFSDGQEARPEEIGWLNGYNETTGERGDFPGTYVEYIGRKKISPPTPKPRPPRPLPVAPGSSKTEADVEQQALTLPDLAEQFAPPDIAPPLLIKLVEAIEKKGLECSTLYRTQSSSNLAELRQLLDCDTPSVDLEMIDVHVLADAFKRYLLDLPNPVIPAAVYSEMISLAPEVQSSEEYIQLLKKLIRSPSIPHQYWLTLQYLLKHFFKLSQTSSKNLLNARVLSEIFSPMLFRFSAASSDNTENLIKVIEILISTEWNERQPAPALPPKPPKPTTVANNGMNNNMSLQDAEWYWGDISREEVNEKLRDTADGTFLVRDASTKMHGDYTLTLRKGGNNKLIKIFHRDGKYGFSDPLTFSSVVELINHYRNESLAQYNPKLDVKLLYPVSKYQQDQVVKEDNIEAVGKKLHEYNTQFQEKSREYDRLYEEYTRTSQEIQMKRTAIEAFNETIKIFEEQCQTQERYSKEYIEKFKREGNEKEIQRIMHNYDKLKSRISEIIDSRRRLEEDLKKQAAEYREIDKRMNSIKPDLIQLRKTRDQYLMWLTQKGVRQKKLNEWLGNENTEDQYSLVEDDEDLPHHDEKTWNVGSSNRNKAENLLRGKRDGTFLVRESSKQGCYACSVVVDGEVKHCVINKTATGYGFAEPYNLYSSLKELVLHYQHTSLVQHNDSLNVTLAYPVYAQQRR
Description: as §1, §2

[2] = test system: human embryonic stem cells (hESC); test: AlphaLISA of SOX17 and OCT4 in hESC-derived cells; assay type: cell-based; details: Activin A + 750 nM inhibitor, no Wnt3a, 3-day treatment
Description: To detect OCT4, the cells were washed three times in PBS and lysed with 50 ul AlphaLISA Lysis Buffer (Perkin Elmer, #AL003C). The lysis buffer was added to each cell sample and mixed with the cells five times. The cell samples were then incubated in a plate shaker at room temperature for 15 minutes. 5 μl of the lysate from each sample was then transferred to a 384 well OptiPlate (Perkin Elmer, #6005629). 5 μl of 10 ug/ml anti-rabbit acceptor bead (Perkin Elmer, #AL104M) and […] of 0.2 nM of rabbit anti-OCT4 antibody (Cell Signaling, #2890) was added to each well and incubated for 2 hours at room temperature. Following the incubation, 5 μl of 0.5 nM mouse anti-OCT4 antibody (BD, #611203) and […] of 0.5 nM biotinylated goat anti-mouse antibody (Invitrogen, #B2763) were added to each well and incubated at room temperature for 2 hours. Following the incubation, […] of streptavidin donor beads (Perkin Elmer, #6760002B) were added to each well and incubated for 30 minutes. The OptiPlates were then analyzed using an Envision Multilabel Plate Reader (Perkin Elmer, #2104-0010). All beads and antibodies were diluted as necessary in IAB Buffer (Perkin Elmer, #AL000C)+50 mM NaCl. Four replicate assays were performed.
To detect SOX17, the cells were washed three times in PBS and lysed with 50 ul Roche Complete Lysis Buffer (Roche, #04719956001). The lysis buffer was added to each cell sample and mixed with the cells five times. The cell samples were then incubated in a plate shaker at room temperature for 15 minutes. 5 μl of the lysate from each sample was then transferred to a 384 well OptiPlate (Perkin Elmer, #6005629). 5 μl of 10 ug/ml anti-rabbit acceptor bead (Perkin Elmer, #AL104M) and […] of 1 nM of rabbit anti-SOX17 antibody (Sigma, #AV33271) was added to each well and incubated for 2 hours at room temperature. Following the incubation, 5 μl of 0.5 nM mouse anti-SOX antibody (Sigma, #SAB3300093) and […] of 0.5 nM biotinylated goat anti-mouse antibody (Invitrogen, #B2763) were added to each well and incubated at room temperature for 2 hours. Following the incubation, […] of streptavidin donor beads (Perkin Elmer, #6760002B) were added to each well and incubated for 30 minutes. The OptiPlates were then analyzed using an Envision Multilabel Plate Reader (Perkin Elmer, #2104-0010). All beads and antibodies were diluted as necessary in IAB Buffer (Perkin Elmer, #AL000C) Four replicate assays were performed.
After a 3-day treatment, cells were harvested and stained with anti-SOX17 antibody as described above in preparation for AlphaLISA analysis.

PI3K alpha_MTOR score: MTOR (mTOR) | PI3K alpha_MTOR score: PI3K alpha (PI3K alpha) | SMILES | Max(Avg (Ph AKT_60min_Intensity)) (phosphorylated AKT) | Avg(Avg (Ph MTOR_60m_%C # Spots)) (phosphorylated mTOR) | endoderm conversion (SOX17, FoxA2, CXCR4 flow cytometry) [1] | endoderm conversion (SOX17 AlphaLISA) [2]
– | – | Clc1ccc(C2(c3ccc(-c4cn[nH]c4)cc3)CCNCC2)cc1 [AT7867] | 122.15 | 73.59 %C | – | –
+++ | – | COc1ccc(-c2ccc3c(N4CCOC[C@@H]4C)nc(N4CCOC[C@@H]4C)nc3n2)cc1CO [AZD 8055] | – | 15.8 %C | – | –
– | – | Cc1c(CN2CCN(C(=O)[C@H](C)O)CC2)sc2c(N3CCOCC3)nc(-c3cnc(N)nc3)nc12 [GDC0980] | – | 9.99 %C | – | –
– | – | CCn1c(-c2nonc2N)nc2c(C#CC(C)(C)O)ncc(OC[C@H]3CCCNC3)c21 [GSK690693] | – | – | higher degree of endoderm conversion | –
PI3K alpha+++_MTOR+++ | PI3K alpha+++_MTOR+++ | COc1ncc(-c2ccc3nccc(-c4ccnnc4)c3c2)cc1NS(=O)(=O)c1ccc(F)cc1F [GSK2126458] | – | 15.55 %C | – | –
+++ | + | COc1ccc(-c2ccc3c(N4CCOCC4)nc(N4C[C@@H](C)O[C@@H](C)C4)nc3n2)cc1CO [KU0063794] | – | 25.83 %C | higher degree of endoderm conversion | better endoderm conversion than cells cultured in Activin A alone or cells cultured with an Akt inhibitor
– | – | Cn1c(=O)n(-c2ccc(C(C)(C)C#N)cc2)c2c3cc(-c4cnc5ccccc5c4)ccc3ncc21 [NVPBEZ235] | 88.3 | 43.44 %C | – | –
PI3K alpha+++_MTOR+++ | PI3K alpha+++_MTOR+++ | Nc1cc(C(F)(F)F)c(-c2cc(N3CCOCC3)nc(N3CCOCC3)n2)cn1 [NVPBKM120] | – | 60.28 %C | – | –
PI3K alpha+++_MTOR+++ | PI3K alpha+++_MTOR+++ | Oc1cccc(-c2nc(N3CCOCC3)c3oc4ncccc4c3n2)c1 [PI103] | – | 5.59 %C | – | –
– | +++ | COc1ccc2c(c1OC)N=C(NC(=O)c1cccnc1)N1CCN=C21 [PIK90] | 86.72 | 42.17 %C | – | –
+++ | – | CN(C)C1CCN(C(=O)c2ccc(NC(=O)Nc3ccc(-c4nc(N5CCOCC5)nc(N5CCOCC5)n4)cc3)cc2)CC1 [PKI 587] | – | 77.99 %C | – | –
– | – | CO[C@H]1C[C@@H]2CC[C@@H](C)[C@@](O)(O2)C(=O)C(=O)N2CCCC[C@H]2C(=O)O[C@H]([C@H](C)C[C@@H]2CC[C@@H](O)[C@H](OC)C2)CC(=O)[C@H](C)/C=C(\C)[C@@H](O)[C@@H](OC)C(=O)[C@H](C)C[C@H](C)/C=C/C=C/C=C/1C [Rapamycin] | – | 57.77 %C | – | –
– | – | CO[C@H]1C[C@@H]2CC[C@@H](C)[C@@](O)(O2)C(=O)C(=O)N2CCCC[C@H]2C(=O)O[C@H]([C@H](C)C[C@@H]2CC[C@@H](OC(=O)C(C)(CO)CO)[C@H](OC)C2)CC(=O)[C@H](C)/C=C(\C)[C@@H](O)[C@@H](OC)C(=O)[C@H](C)C[C@H](C)/C=C/C=C/C=C/1C [Temsirolimus] | – | 42.12 %C | – | –
– | – | CCC(=O)N1CCN(c2ccc(-n3c(=O)ccc4cnc5ccc(-c6cnc7ccccc7c6)cc5c43)cc2C(F)(F)F)CC1 [Torin1] | 89.48 | 66.6 %C | – | –
+++ | – | COC(=O)Nc1ccc(-c2nc(N3CCOCC3)c3cnn(C4CCN(C(=O)OC)CC4)c3n2)cc1 [WYE - 354] | 89.35 | 10.49 %C | higher degree of endoderm conversion | better endoderm conversion than cells cultured in Activin A alone or cells cultured with an Akt inhibitor
+++ | – | CNC(=O)Nc1ccc(-c2nc(N3CC4CCC(C3)O4)c3cnn(C4CCC5(CC4)OCCO5)c3n2)cc1 [WYE-125132] | – | 17.55 %C | – | –
– | – | COC[C@H]1OC(=O)c2coc3c2[C@@]1(C)C1=C(C3=O)[C@@H]2CCC(=O)[C@@]2(C)C[C@H]1OC(C)=O [Wortmannin] | – | 10.47 %C | – | –

SMILES | PI3K alpha_MTOR score: MTOR (mTOR) | PI3K alpha_MTOR score: PI3K alpha (PI3K alpha) | Max(Avg (Ph AKT_60min_Intensity)) (phosphorylated AKT) | Avg(Avg (Ph MTOR_60m_%C # Spots)) (phosphorylated mTOR) | endoderm conversion (SOX17, FoxA2, CXCR4 flow cytometry) [1] | endoderm conversion (SOX17 AlphaLISA) [2]
COC(=O)Nc1ccc(-c2nc(N3CCOCC3)c3cnn(C4CCN(Cc5cccnc5)CC4)c3n2)cc1 [WYE-687] | +++ | + | 86.65 | 12.81 %C | – | –
